According to a melting point compilation (Tetko et al.; mined from patent text by program, amines drawn as free bases though some values may be those of a salt):

| SMILES | melting point [°C] |
| --- | --- |
| COc1ccc(-c2cc3ccc(C(=O)O)cc3o2)cc1C(C)(C)C | 235 |
| O=c1cc2c(nn1-c1ccc(Cl)cc1F)CCCC2 | 104 to 108 |
| CC=Cc1cnn(C)c1S(=O)(=O)NC(=O)Nc1nc(OC)cc(OC)n1 | 154 to 156 |
| CCC1CC(=O)N(Cc2cccc(C(=O)NC3CCCC3)c2)N=C1c1ccc(OC)c(OC)c1 (centres undefined) | 54 |
| O=C1N(Cc2ccc(-c3ccccc3C(F)(F)F)o2)c2ccccc2C12COc1cc3c(cc12)OCO3 (centres undefined) | 124 to 126 |
| CCC1(CCCCN2CCN(c3ccc(Cl)cc3)CC2)C(=O)Nc2ccc(F)cc21 (centres undefined) | 148 to 150 |
| CCOC(=O)c1cccc(Nc2nccc(-c3ccnc(Cl)c3)n2)c1 | 149 to 150 |
| CCOCCn1c(N2CCCN(CCC3(c4ccncc4)CCN(C(=O)c4cc(OC)c(OC)c(OC)c4)C3)CC2)nc2ccccc21 (centres undefined) | 85 to 95 |
| O=C1OC(c2ccccc2)=NC1=Cc1cc(Cl)ccc1Sc1cccs1 | 125 to 127 |
| CNS(=O)(=O)c1cc(OC)c(OC)c(C(=O)O)c1 | 164 to 165 |
| CCn1ncc(C(=O)c2ccc(S(C)(=O)=O)c(C3=NOCC3)c2C)c1OCC(=O)c1ccccc1 | 177 to 179 |
| COc1ccc(N2CC(=O)N(CCN)C2=O)cc1OC | 162 to 164 |
| COC(=O)c1cccc2nc(SCCCCCC(=O)Nc3c(SC)cc(C)nc3SC)oc12 | 141 to 142 |
| Nc1c(NC=O)c(=O)[nH]c(=O)n1Cc1ccc(Cl)cc1 | 274 to 278 |
| O=C(O)Cc1ccc(C(=O)c2ccc(Cl)cc2)s1 | 165 |
| CCCCCCCC=C1SC(=S)N(N=c2sc3ccccc3s2)C1=O | 185 |
| COc1ccc(/C=C/c2ccncc2)c2c1OC(C)(C)C2 | 110 to 113 |
| COc1ncc(CN2C(=O)C3(COc4cc5c(cc43)OCO5)c3ccccc32)s1 (centres undefined) | 164 to 166 |
| COc1c(C)c(C(O)(c2cccnc2)C(C)C)c(OC)c2ccccc12 (centres undefined) | 130 to 131 |
| C#CC[C@H]1C(=O)O[C@@H]1C[C@@H](CCCCCCCCCCCCCCCCC)O[Si](C)(C)C(C)(C)C | 62 to 63 |
| CCN(CC)S(=O)(=O)c1ccc(C(CC2CCCC2)C(=O)Nc2nc3ccc(OC)nc3s2)cc1 (centres undefined) | 150 to 152 |
| CC(C)c1cc(-c2ccc(F)cc2)n(-c2ncccn2)n1 | 102 to 103 |

| SMILES | melting point [°C] |
| --- | --- |
| Cc1ccc(O)c(C)c1O | 102 to 104 |
| CS(=O)(=O)c1ccc(C(=O)c2c(O)cc(Cl)cc2Cl)c(Cl)c1 | 123 to 126 |
| CCc1ccc2cc(C)c(-n3cncn3)nc2c1 | 72 to 73 |
| Cc1ccc(N)cc1S(=O)(=O)Nc1onc(C)c1C | 204 to 205 |
| CCOc1ccc2c(c1)n(C1CCCCC1)c(=O)n2S(=O)(=O)c1ccc(C(=O)NC(C)(C)CO)cc1OC | 218 |
| N#CC1CN1C(=O)c1ccc(S(N)(=O)=O)cc1 (centres undefined) | 145 to 146 |
| CNC(=O)[C@@H]1O[C@H]1c1ccc(OC)cc1 | 135 to 136 |
| Cc1cc(Cl)cc(NC(=O)Cc2ccc(OC3(C(=O)O)CCCC3C)cc2)c1 (centres undefined) | 180 to 182 |
| CC1Cc2c(N)c(Cl)cc(C(=O)NCCC34CCCN3CCC4)c2O1 (centres undefined) | 127 to 129 |
| COC(=O)Cc1ccc(-c2ccc(OCCN3CCOCC3)cc2)cn1 | 135 to 137 |
| C=CCON=C(C(=O)O)c1nc(NC=O)sc1Cl | 166 to 167 |
| O=C(O)c1cc(-n2c(-c3ccc(F)cc3)cc3c2CCCC3)ccc1O | 239 to 240 |
| COC(=O)c1cc(OCC=C(Cl)Cl)cc(Cl)c1OC | 103 |
| COc1ccc(S(=O)(=O)C(CCCCc2ccccc2)(CC(=O)O)c2ccccc2)cc1 (centres undefined) | 75 to 78 |
| COc1ccc2c(c1)CCC1(CCCCN1C(=O)C(F)(F)F)C2 (centres undefined) | 75 to 76 |
| CCCCCCCCc1ccc(-c2ccc(O)c(F)c2)nc1 | 73.5 to 74.6 |
| CCOC(=O)C1=C(COCCNS(=O)(=O)NC(=O)c2ccco2)NC(C)=C(C(=O)OC)C1c1ccccc1Cl (centres undefined) | 138 |
| CC(C)C1C(=O)OC(=O)N1c1ccc(Cl)cc1 (centres undefined) | 137 to 138 |
| N#Cc1cccc(NC(=O)NC2N=C(c3ccccc3F)c3ccccc3N(CC(=O)N3CC4CCC(CC4)C3)C2=O)c1 (racemic) | 188 to 195 |
| CCCCCCCCOC(=O)c1cc(=O)c2c3c(ccc2o1)-c1ccc(Cl)cc1C(C)(C)O3 | 111 to 113 |
| Cc1nc2c(OCc3c(Cl)ccc(N(C)C(=O)CNC(=O)CN4C(=O)c5ccccc5C4=O)c3Cl)cccn2c1Br | 148 to 150 |
| O=C(O)c1cccc2nc3ccc4[nH]ncc4c3nc12 | 305 to 310 |

| SMILES | melting point [°C] |
| --- | --- |
| COC(=O)C(=O)Cc1ccc(SC)cc1 | 112 to 113 |
| CCCC=Cc1c(C(C)C)nc(C(C)C)c(CO)c1-c1ccc(Cl)c(Cl)c1 | 46 to 48 |
| COc1cccc(OC)c1-c1ccc(C[C@H](NC(=O)c2c(Cl)cccc2Cl)C(=O)O)cc1NC(C)=O | 142 to 144 |
| Nc1cccc2c1C(=O)N1CCC[C@H]1c1c(C(=O)OC3CCCCC3)ncn1-2 | 211 to 212 |
| CC12CC(=O)C3C(CCC4CC(O)CCC43C)C1CCC2C(=O)COCCN1CCOCC1 (centres undefined) | 112 to 113 |
| CC(=O)Cc1c(C)nc2ccccc2c1N | 130 to 133 |
| O=C1c2nc3ccccn3c2C(=O)c2cccc(F)c21 | > 260 |
| O=C(O)CNS(=O)(=O)c1ccc(N2CCN(c3ccccc3)CC2)cc1 | 120 to 124 |
| CCOC(=O)C(=CNc1ccc2c(c1)CCC2)C(=O)OCC | 25 to 30 |
| CC(=O)Nc1ccc(C(=O)NC2=Nc3cc(N4CCOCC4)ccc3C3=NCCN23)cn1 | 228 |
| CCCCCCCCCCCCC1=C(OC(C)=O)C(=O)c2c(Cl)cccc2C1=O | 57 to 59 |
| CCOC(=O)CON(CC)C(=S)Nc1ccccc1C(C)C | 57 to 58 |
| CCCN(CCCCC12CC3CC(CC(C3)C1)C2)C(=O)NCCCc1ccncc1 | 110 |
| Nc1ncc2c(n1)-c1ccc(Cl)cc1C(c1ccccc1)=NC2 | 209 to 210 |
| CS(=O)(=O)N1CC(CN2CCCC2)Cc2ccccc21 (centres undefined) | 72 to 73 |
| Nc1cc(-c2ncnc(C(F)F)c2Cl)c(F)cc1Cl | 106 to 108 |
| CC(C)(C)OC(=O)Nc1ccc(C#Cc2cccc(C#Cc3ccc(NC(=O)OC(C)(C)C)cc3)c2C(=O)O)cc1 | 118 |
| COCOc1cc(/C=C/C(=O)/C=C/c2cc(OCOC)cc(OCOC)c2)cc(OCOC)c1 | 90 to 92 |
| CCOC(=O)CN1C(=O)[C@@H](N)[C@H](c2ccccc2)Sc2cc(Cl)ccc21 (relative stereo) | 173 to 175 |
| CS(=O)(=O)c1ccc(-c2cnn(CC(F)(F)F)c(=O)c2NCC2CC2)cc1 | 145 to 146 |

Further lines, results first:

| melting point [°C] | SMILES |
| --- | --- |
| 142 | O=C(Oc1ccc2c(c1)OC=C(C(=O)N1CCN(C(c3ccc(F)cc3)c3ccc(F)cc3)CC1)O2)c1cccnc1 |
| 77 to 79 | Cc1ncnc(-c2ccc(Cl)cc2F)c1Cl |
| 163 to 165 | O=C(O)C(=O)c1ccc(OCCCCc2cccnc2)cc1 |
| 201 to 204 | CCNc1ccc(C(C)=O)cc1S(N)(=O)=O |
| 154 to 155 | CCOC(=O)c1[nH]c(CC)nc1C1CC1 |
| 227 to 229 | CCOC(=O)c1ccc(COCc2csc3nc(C(=O)NCc4cccc(CS(C)(=O)=O)c4)[nH]c(=O)c23)cc1 |
| 190 to 191 | CCOC(=O)C1=CC=C2C(=CNN2CC)N1NN=C(C)CC#N |
| 80 to 84 | O=[N+]([O-])c1cnn(-c2c(Cl)cc(C(F)(F)F)cc2Cl)c1Cl |
| 146 to 148 | CC(C)(C)c1cc(CCC(=O)NCCNc2ccc(C#N)cc2)cc(C(C)(C)C)c1O |
| 185 to 193 | O=C(O)c1cn(-c2ccc(F)cc2)c(-c2ccc(O)cc2)cc1=O |
| 127 to 128 | O=C(CS(=O)(=O)c1ccccc1)c1ccc(F)nc1 |
| 100 to 102 | Cc1c(C)c2c(c(C)c1NCc1ccc3c(c1)OCO3)C(c1ccc(C(C)C)cc1)C(C)(C)O2 (centres undefined) |
| 118 to 121 | Cc1cccc(-c2[nH]c(C(C)C)nc2-c2ccc(F)c(-c3ccc(C)[nH]3)c2)n1 |
| 134 to 136 | CCC(=O)Oc1ccc2c(c1)CCC1C2CCC2(C)C(=O)CCC12 (centres undefined) |
| 246 to 248 | COc1ccc(Nc2nc(O)c3sccc3n2)c(C)c1 |
| 142 to 148 | c1c(NC2CCCC2)nc(NC2CCCC2)nc1N1CCNCC1 |
| 127 to 129 | CCOC(=O)Cn1nnc2cc(-c3ncc(C(F)(F)F)cc3Cl)ccc21 |
| 145 to 146 | CSc1nc2ccc(C(F)(F)F)cc2[nH]1 |

| melting point [°C] | SMILES |
| --- | --- |
| 95 | C#CCn1cc(C#N)c(CO)c1 |
| 230 | O=c1ccc(-c2cc(F)cc(F)c2)n[nH]1 |
| 157 to 158 | CS(=O)(=O)NC(=O)CNC(=O)NCCCCC1CCSS1 (centres undefined) |
| 186 to 188 | CC(C)(C)c1cc(C=C2SCN(CC#N)C2=O)cc(C(C)(C)C)c1O |
| 128 to 134 | CCOc1ccc(-c2ccc(-c3ccc(C4CCC(c5c(F)cccc5F)=N4)cc3)cc2)s1 (centres undefined) |
| 167 to 170 | CC(C)c1cc2c(cc1Oc1cnc(N)nc1N)OCCN2C |
| 161 to 163 | COC(=O)C1=C(CCc2ccccc2OC)NC(CC(=O)N2CCN(CC(=O)NC(C)C)CC2)=C(C(=O)OC)C1c1c(Cl)cccc1Cl (centres undefined) |
| 113 to 115 | Cc1ccc(CN2CC=C(/C=C/c3ccc(Cl)cc3)CC2)cc1 |
| 132 to 134 | C[C@H](Oc1cc(-c2c3ccccc3c(Br)c3sc4ccccc4c23)ccc1Br)C(=O)O |
| 220 to 222 | COC(=O)NCc1c[nH]c(=S)n1[C@H]1CCc2c(F)cc(F)cc2C1 |
| 177 to 178 | COc1nnc2n1C=Cc1cc(Cl)ccc1C2 |
| 126 to 127 | Cc1cc(C)cc(C(=O)c2c(C(C)C)c(=O)[nH]c(=O)n2C/C=C/CN=[N+]=[N-])c1 |
| 153 to 156 | Nc1ccccc1Sc1ccccc1-c1nnn[nH]1 |
| 88 | CCc1cc2c(NCCc3ccccc3)ccnc2s1 |
| 149 to 151 | CCOC(=O)C1=C(NC(=O)Nc2cc(C(=O)OC(C)C)c(F)cc2F)CCC1 |
| 165 | COc1ccc(CNc2nc(Cl)ncc2C(=O)c2cc(OC)c(OC)c(OC)c2)cc1Cl |
| 280 to 282 | COc1cc(S(C)(=O)=O)ccc1-c1ccc(C#N)c(=O)[nH]1 |
